Results on one molecule are retold here after patent US20240245647A1, “ISOMEROHYDROLASE INHIBITOR FOR TREATMENT OF ATROPHIC FORM OF AGE-RELATED MACULAR DEGENERATION AND STARGARDT DISEASE” (The Trustees of Columbia University in the City of New York, priority 2021, published 2024).

Structures are written as SMILES.

What is called half-life is how long it takes for the measured level to halve. High values mean slow loss, low ones fast loss.

One data set has as its system retina. As to the kind of experiment: Light-induced retinal damage (LIRD). The format is in vivo, BALB/c mice. The following applies: 2 mg/kg, 10,000 lux 3 hr, 5 days post-LIRD. How it is done:
FIG. 5. LIRD caused the degeneration in the retina and RPE, which was rescued by inhibitor at the dose of 2 mg/kg in BALB/c mice. (FIG. 5A) Representative histological analysis for the retinas of RPE65-61 injected mice 5 days post-LIRD. Retinal cross-sections of No LIRD Control, LIRD+Vehicle, and LIRD+inhibitor RPE65-61 from three groups were stained with H&E for morphological comparison, 40× magnification. (FIG. 5B) Representative OCT images of mice treated with RPE65-61. […] RPE: retinal pigment epithelium; IS: inner segment; OS: outer segment; ONL: outer nuclear layer; OPL: outer plexiform layer; INL: inner nuclear layer; IPL: inner plexiform layer; RNFL: retinal nerve fiber layer. Bars represent mean±SEM. with n=8 per group. Student's t-test. *P<0.05, **<0.01 and ***<0.001, ****<0.0001.
FIG. 6. […] (FIGS. 6A-B) Shown are representative images of the Western blot detection of rhodopsin protein expression and the correlating quantifications. (FIGS. 6C-D) Cone density was evaluated by immunofluorescence, representative confocal images of immunofluorescence labeling with Peanut Agglutinin Lectin (PNA) and the correlating quantifications, 40× magnification. […]
Mice were dark-adapted overnight with food and water ad libitum. […] The mice were returned to regular housing for 5 days and then the retinal damage was assessed. […]

Data set [1] concerns cGAS/STING signal pathway. As to the kind of experiment: cGAS/STING pathway activation after LIRD (Western blot). The following applies: 2 mg/kg. The format is in vivo, BALB/c mice. How it is done:
FIG. 8. Elevated protein levels of cGAS-STING pathway in BALB/c mice. The CGAS, STING and phosphorylated NF-κB (pp65). (FIGS. 8A-8C) Retinas were harvested and cGAS and STING protein levels were measured by Western blot analysis with β-actin as loading control and densitometry quantification. (FIGS. 8D-8E) Levels of phosphorylated NF-κB (p-NF-κB) were determined by Western blotting. Total NF-κB (p65) was used as an internal control and densitometry quantification. Each lane represents an individual mouse. (FIGS. 8F-8G) Photoreceptor cell apoptosis was evaluated by TUNEL on the retinal sections at the dose of 2 mg/kg in BALB/c mice and correlating quantitative analysis. Student's t-test was used (n=5, mean±SEM, *P<0.05, **<0.01).
To further evaluate the effect of RPE65-61 on retinal apoptosis, retinal sections from LIRD mice were used for Terminal deoxynucleotidyltransferase dUTP nick-end labeling (TUNEL) with the In Situ Cell Death Detection Kit (Millipore/sigma Cat #:11684795910). TUNEL-positive photoreceptor cells were quantified to evaluate the effects of RPE65-61 as described (Rajala, A. et al. 2018; Ma, H. et al. 2020).

The subject of another data set is VAP-1. The data set can be described thus: in vitro. The following applies: male, Beagle, dog, plasma, pH 7.4.
Data set [2] is described as follows: Sequestration of all-trans-retinal (atRAL) in vitro. To be noted: 100 μM compound, equimolar atRAL, 30 min.
Method: Test compounds (100 μM) were incubated with equimolar amounts of all-trans-retinal for 30 min. The UV-vis spectra were collected and the concentration of all-trans-retinal was assessed based on the 370 nm absorbance. (FIG. 11A) Graph bars show mean atRAL levels normalized to DMSO; error bars show SD; one-way ANOVA with Holm-Sidak post-hoc test was used for statistical analysis; *P<0.05; ****P<0.0001.

Method for VAP-1: Studies were carried out in mixed-gender human plasma (Lot #HMN330460) and male Beagle dog plasma (Lot #BGL118112), obtained from BioIVT and collected on sodium heparin. Plasma was adjusted to pH 7.4 prior to initiating the experiments. DMSO stocks were first prepared for the test articles. Aliquots of the DMSO solutions were dosed into 1 mL of plasma, which had been pre-warmed to 37° C., at a final test article concentration of 1 μM. The vials were kept in a benchtop Thermomixer® for the duration of the experiment. Aliquots (100 μL) were taken at each time point (0, 15, 30, 60, and 120 minutes) and added to 96-well plates, which had been pre-filled with 300 μL of acetonitrile (ACN). Samples were stored at 4° C. until the end of the experiment. After the final time point was sampled, the plate was mixed and then centrifuged at 3,000 rpm for 10 minutes. Aliquots of the supernatant were removed, diluted 1:1 into distilled water, and analyzed by LC-MS/MS. The peak area response ratio to internal standard (PARR) was compared to the PARR at time 0 to determine the percent of test article remaining at each time point. Half-lives were calculated using GraphPad software, fitting to a single-phase exponential decay equation.

`N=S(=O)(CCN)c1cccc(OCC2CCCCC2)c1` (racemic) [RPE65-61, (±)-(2-aminoethyl) (3-(cyclohexylmethoxy)phenyl) (imino)-λ^6-sulfanone]: in the data set with retina, the “effect against LIRD (histology, ERG)” value is reported as “protective effect”. Further, the “activation of cGAS/STING signal pathway in RPE and photoreceptor cells” value in data set [1] is “protected RPE and photoreceptor cells from the activation of cGAS/STING signal pathway”. The same molecule yielded a half-life at 1 μM with VAP-1 of 35.3 min. In data set [2], this molecule showed an atRAL reduction of 80%.
